Patent US11806342B2, “Diiodohydroxyquinoline for the treatment of clostridium difficile infection” (Purdue Research Foundation, priority 2019, dated 2023)
In brackets after ≈: the same amount, converted by molar mass.

How the values were obtained:
[1] = system: C. difficile ATCC 43255; experiment: Spore inhibition assay; type: cell-based, Clostridium difficile; settings: five days
Description: (§1) The spore inhibition assay was performed as described in previous reports to investigate the effect of diiodohydroxyquinoline on C. difficile spore formation. Briefly, […], the bacterial suspension was split into microcentrifuge tubes and drugs were added (in triplicates) at concentrations equal to ½×MIC or 1×MIC. Tubes were then, incubated anaerobically for five days at 37° C. Thereafter, an aliquot from each tube was diluted and plated on BHIS agar plates supplemented with 0.1% taurocholic acid, to count the total bacterial counts (vegetative bacteria+spores). The remaining solution was centrifuged, and the pellet was suspended in PBS, stored overnight at 4° C., and subsequently shock-heated at 70° C. for 30 minutes to kill the vegetative cells. The resulting solution was serially diluted and plated to determine the heat-resistant spore counts. Spore inhibition assay was performed as described in previous reports to investigate the effect of DIHQ on C. difficile spore formation. Briefly, log-phase cultures of C. difficile strains (ATCC BAA-1870, ATCC 43255, and NR-49277) were diluted in BHIS to an initial density of ˜10^6 CFU/mL. Afterwards, the bacterial suspension was split in small tubes and the drugs were added (in triplicates) at concentrations equal to ½×MIC or 1×MIC. Tubes were then incubated anaerobically for 5 days at 37° C. After that, an aliquot from each tube was diluted and plated on BHIS agar plates supplemented with 0.1% taurocholic acid, to count the total bacterial count (vegetative bacteria+spores). The remaining solution was centrifuged, and the pellet was suspended in PBS and stored overnight at 4° C. then shock heated at 70° C. for 30 minutes to kill the vegetative cells. The resulting solution was serially diluted and plated to determine the heat-resistant spore counts.

[2] = system: C. difficile ATCC BAA-1870; experiment: Spore inhibition assay; type: cell-based, Clostridium difficile; settings: five days
Description: as §1

[3] = system: C. difficile NR-49277; experiment: Spore inhibition assay; type: cell-based, Clostridium difficile; settings: five days
Description: as §1

[4] = system: 38 tested C. difficile strains; experiment: MIC and MBC over the panel of clinical isolates (MIC50, MIC90, range); type: cell-based, Clostridium difficile
Description: MIC50 and MIC90 are the minimum concentration of each agent that inhibited growth of 50% and 90% of the tested isolates, respectively. The minimum bactericidal concentration (MBC) of these drugs was tested by plating 5 μL from wells with no growth onto BHIS agar plates. The MBC was categorized as the lowest concentration that reduced bacterial growth by 99.9% MIC50 and MIC90 are the minimum concentration of each agent that inhibited the growth of 50% and 90% of the tested isolates, respectively. The minimum bactericidal concentration (MBC) of these drugs was tested by plating 5 μL from wells with no growth onto BHIS agar plates. The MBC was categorized as the lowest concentration that reduced bacterial growth by 99.9% [29-31].

[5] = system: C. difficile ATCC 1801; experiment: Checkerboard assay, DIHQ with metronidazole or vancomycin; type: cell-based, Clostridium difficile
Description: (§2) Interactions between diiodohydroxyquinoline and the anticlostridial drugs (metronidazole and vancomycin) against Clostridium difficile clinical isolates. […] The fractional inhibitory concentration index (ΣFIC) was calculated for each interaction. Interactions where the ΣFIC index was ≤0.5 were categorized as synergistic (SYN).

[6] = system: C. difficile P11; experiment: as above; type: cell-based, Clostridium difficile
Description: as §2

[7] = system: C. difficile P30; experiment: as above; type: cell-based, Clostridium difficile
Description: as §2

[8] = system: C. difficile ATCC 9689; experiment: as above; type: cell-based, Clostridium difficile
Description: as §2

[9] = system: C. difficile P19; experiment: as above; type: cell-based, Clostridium difficile
Description: as §2

[10] = system: C. difficile I6; experiment: as above; type: cell-based, Clostridium difficile
Description: as §2

[11] = system: Bacteroides dorei HM-718; experiment: MIC against normal gut microflora, broth microdilution; type: cell-based; settings: Phocaeicola dorei, HM718; Bacteroides dorei HM-718; read-out: MIC
Description: (§3) In vitro antimicrobial evaluation of diiodohydroxyquinoline against normal microflora. The broth microdilution assay was utilized to determine the MICs of DIHQ and control antibiotics against commensal organisms that compose he human gut microflora, as described elsewhere. A bacterial solution equivalent to 0.5 McFarland standard was prepared and diluted in BHIS broth (for Bifidobacterium and Bacteroides) or in MRS broth (for Lactobacillus) to achieve a bacterial concentration of about 5×10^5 CFU/mL. Then, drugs were added and serially diluted along the plates.

[12] = system: Bacteroides fragilis HM-711; experiment: as above; type: cell-based; settings: HM711; Bacteroides fragilis HM-711; read-out: MIC
Description: as §3

[13] = system: Bacteroides dorei HM-717; experiment: as above; type: cell-based; settings: Phocaeicola dorei, HM717; Bacteroides dorei HM-717; read-out: MIC
Description: as §3

[14] = system: Bacteroides fragilis HM-709; experiment: as above; type: cell-based; settings: HM709; Bacteroides fragilis HM-709; read-out: MIC
Description: as §3

[15] = system: Lactobacillus crispatus HM-371; experiment: as above; type: cell-based; settings: HM371; Lactobacillus crispatus HM-371; read-out: MIC
Description: as §3

[16] = system: Bifidobacterium angulatum HM-1189; experiment: as above; type: cell-based; settings: HM1189; Bifidobacterium angulatum HM-1189; read-out: MIC
Description: as §3

[17] = system: Bifidobacterium breve HM-411; experiment: as above; type: cell-based; settings: HM411; Bifidobacterium breve HM-411; read-out: MIC
Description: as §3

[18] = system: Bifidobacterium longum HM-847; experiment: as above; type: cell-based; settings: HM847; Bifidobacterium longum HM-847; read-out: MIC
Description: as §3

[19] = system: Bifidobacterium breve HM-1120; experiment: as above; type: cell-based; settings: HM1120; Bifidobacterium breve HM-1120; read-out: MIC
Description: as §3

[20] = DIHQ with metronidazole, C. difficile ATCC 1801
[21] = DIHQ with vancomycin, C. difficile ATCC 1801
[22] = DIHQ with metronidazole, C. difficile P11
[23] = DIHQ with vancomycin, C. difficile P11
[24] = DIHQ with metronidazole, C. difficile P30
[25] = DIHQ with vancomycin, C. difficile P30
[26] = DIHQ with metronidazole, C. difficile ATCC 9689
[27] = DIHQ with vancomycin, C. difficile ATCC 9689
[28] = DIHQ with metronidazole, C. difficile P19
[29] = DIHQ with vancomycin, C. difficile P19
[30] = DIHQ with metronidazole, C. difficile I6
[31] = DIHQ with vancomycin, C. difficile I6

With Oc1c(I)cc(I)c2cccnc12 [DIHQ, 5,7-diiodoquinolin-8-ol] the “reduction in spore count” value ([1]; C. difficile ATCC 43255, 1×MIC) was roughly 0.99 log10, the “reduction in spore count” value ([1]; C. difficile ATCC 43255, ½×MIC) was roughly 0.38 log10 and the “reduction in spore count” value ([2]; C. difficile ATCC BAA-1870, 1×MIC) was roughly 1.24 log10. For the same molecule, the “reduction in spore count” value ([2]; C. difficile ATCC BAA-1870, ½×MIC) was roughly 0.74 log10, the “reduction in spore count” value ([3]; C. difficile NR-49277, 1×MIC) was roughly 0.62 log10 and the “reduction in spore count” value ([3]; C. difficile NR-49277, ½×MIC) was roughly 0.56 log10. For the same molecule, the MIC50 ([4]; Clostridioides difficile, concentration inhibiting growth of 50% of the tested isolates, read-out: MIC50) was 0.5 µg/mL (≈ 1.26 µM), the MIC90 ([4]; Clostridioides difficile, concentration inhibiting growth of 90% of the tested isolates, read-out: MIC90) was 2 µg/mL (≈ 5.04 µM) and the “MBC values relative to the corresponding MIC values” ([4]; all isolates) was “equal to or two-fold higher”. The MIC range ([4]; over the 38 tested C. difficile strains) was 0.06 to 2 µg/mL, the “MIC of DIHQ combined with metronidazole” value ([5]; C. difficile ATCC 1801) was 1 µg/mL and the “MIC of DIHQ combined with vancomycin” value ([5]; C. difficile ATCC 1801) was 2 µg/mL. The MIC alone ([5]; C. difficile ATCC 1801, Table 4) was 4 µg/mL, the MIC ([5]; Clostridioides difficile, ATCC1801, C. difficile ATCC 1801, Table 3, read-out: MIC alone) was 4 µg/mL and the Interpretation [5, 20] was “SYN (ΣFIC index ≤0.5 is considered synergistic (SYN))”. The “ΣFIC Index” value [5, 20] was 0.37, the Interpretation [5, 21] was “ADD (ΣFIC index >0.5 − 1.25 is considered additive (ADD))” and the “ΣFIC Index” value [5, 21] was 0.625. For the same molecule, the “MIC of DIHQ combined with metronidazole” value ([6]; C. difficile P11) was 0.125 µg/mL, the “MIC of DIHQ combined with vancomycin” value ([6]; C. difficile P11) was 0.5 µg/mL and the MIC alone ([6]; C. difficile P11, Table 4) was 0.5 µg/mL. The MIC ([6]; Clostridioides difficile, C. difficile P11, Table 3, read-out: MIC alone) was 0.5 µg/mL, the Interpretation [6, 22] was “SYN (ΣFIC index ≤0.5 is considered synergistic (SYN))” and the “ΣFIC Index” value [6, 22] was 0.37. The Interpretation [6, 23] was “ADD (ΣFIC index >0.5 − 1.25 is considered additive (ADD))”, the “ΣFIC Index” value [6, 23] was 1.125 and the “MIC of DIHQ combined with metronidazole” value ([7]; C. difficile P30) was 0.06 µg/mL. The “MIC of DIHQ combined with vancomycin” value ([7]; C. difficile P30) was 0.125 µg/mL, the MIC alone ([7]; C. difficile P30, Table 4) was 1 µg/mL and the MIC ([7]; Clostridioides difficile, C. difficile P30, Table 3, read-out: MIC alone) was 1 µg/mL. For the same molecule, the Interpretation [7, 24] was “SYN (ΣFIC index ≤0.5 is considered synergistic (SYN))”, the “ΣFIC Index” value [7, 24] was 0.185 and the Interpretation [7, 25] was “SYN (ΣFIC index ≤0.5 is considered synergistic (SYN))”. For the same molecule, the “ΣFIC Index” value [7, 25] was 0.25, the “MIC of DIHQ combined with metronidazole” value ([8]; C. difficile ATCC 9689) was 0.06 µg/mL and the “MIC of DIHQ combined with vancomycin” value ([8]; C. difficile ATCC 9689) was 0.06 µg/mL. For the same molecule, the MIC alone ([8]; C. difficile ATCC 9689, Table 4) was 0.125 µg/mL, the MIC ([8]; Clostridioides difficile, ATCC9689, C. difficile ATCC 9689, Table 3, read-out: MIC alone) was 0.125 µg/mL and the Interpretation [8, 26] was “ADD (ΣFIC index >0.5 − 1.25 is considered additive (ADD))”. For the same molecule, the “ΣFIC Index” value [8, 26] was 0.62, the Interpretation [8, 27] was “ADD (ΣFIC index >0.5 − 1.25 is considered additive (ADD))” and the “ΣFIC Index” value [8, 27] was 0.625. For the same molecule, the “MIC of DIHQ combined with metronidazole” value ([9]; C. difficile P19) was 0.06 µg/mL, the “MIC of DIHQ combined with vancomycin” value ([9]; C. difficile P19) was 0.125 µg/mL and the MIC alone ([9]; C. difficile P19, Table 4) was 0.5 µg/mL. For the same molecule, the MIC ([9]; Clostridioides difficile, C. difficile P19, Table 3, read-out: MIC alone) was 0.5 µg/mL, the Interpretation [9, 28] was “SYN (ΣFIC index ≤0.5 is considered synergistic (SYN))” and the “ΣFIC Index” value [9, 28] was 0.24. The Interpretation [9, 29] was “SYN (ΣFIC index ≤0.5 is considered synergistic (SYN))”, the “ΣFIC Index” value [9, 29] was 0.375 and the “MIC of DIHQ combined with metronidazole” value ([10]; C. difficile I6) was 0.125 µg/mL. For the same molecule, the “MIC of DIHQ combined with vancomycin” value ([10]; C. difficile I6) was 0.5 µg/mL, the MIC alone ([10]; C. difficile I6, Table 4) was 2 µg/mL and the MIC ([10]; Clostridioides difficile, C. difficile I6, Table 3, read-out: MIC alone) was 2 µg/mL. For the same molecule, the Interpretation [10, 30] was “SYN (ΣFIC index ≤0.5 is considered synergistic (SYN))”, the “ΣFIC Index” value [10, 30] was 0.188 and the Interpretation [10, 31] was “SYN (ΣFIC index ≤0.5 is considered synergistic (SYN))”. For the same molecule, the “ΣFIC Index” value [10, 31] was 0.375, the MIC [11] was greater than 128 µg/mL and the MIC [12] was greater than 128 µg/mL. It also gave an MIC [13] greater than 128 µg/mL, an MIC [14] greater than 128 µg/mL and an MIC [15] of 64 µg/mL (≈ 161 µM). It also gave an MIC [16] of 128 µg/mL (≈ 322 µM), an MIC [17] greater than 128 µg/mL and an MIC [18] of 128 µg/mL (≈ 322 µM). The MIC [19] was greater than 128 µg/mL.
